Experimental data from patent US5371102A, “Compositions and methods of inhibiting thyroid activity” (priority 1993, dated 1994).

Experiments:
LPX [1] = biological target: T1, LPX (Bos taurus, UniProt P80025); assay: LPX iodide ion oxidation activity after incubation and dilution; assay type: biochemical, bovine; conditions: LPX/hydrogen peroxide, absence of iodide ion
T1 construct: purchased Sigma Chemical Company
Text: (§1) Materials used in the examples below were obtained from the following sources. Bovine LPX, bovine liver catalase, glucose oxidase, 30% hydrogen peroxide, glucose, guaiacol, ABTS and deuterium oxide were purchased from Sigma Chemical Company. Selenium dioxide, MBI ^13 CH3 I and PBA were purchased from Aldrich Chemical Company and PBA was purified as previously described by Fieset et al., Reagents for Organic Synthesis, Vol. I, pp.135-139, John Wiley and Sons, N.Y. (1967). LPX purity was checked by PAGE, as described by Doerge, D.R., et al. in, Biochem. Pharmacol., Vol.36, pp.972-974 (1986). TPX was purified from hog thyroids obtained from a local slaughterhouse by published procedures. Doerge & Takazowa, Chemical Research in Toxicology, Vol. 3, pp. 98-101 (1990). TPX purity was determined by LC and its concentration determined spectophotometrically. Hydroperoxide concentrations were determined by iodometric titration, as described by Kolthoff, et al., in "Quantitative Chemical Analysis", Macmillan, London, pp.842-860 (1969). MMBI, and BI were synthesized by published procedures as described by Doerge, D.R., Biochem, Vol. 27, pp. 3697-3700 (1988) and were recrystallized from aqueous ethanol. MeBI was purified by distillation and DMeBI^+ was synthesized and purified by recrystallization from ethyl acetate/methanol. 1-^13 C-MMBI was synthesized from ^13 CH3 I according to the procedure disclosed by Doerge, D.R., in, J. Lab. Comp. and Radiopharm., Vol.25, pp.985-990 (1988). PPHP and PPA were prepared, purified and analyzed as previously described by Doerge, Biochem, Vol.27, p.11 (1988). The methyl ester of 1-methyl-benzimidazole-2-sulfinic acid was prepared by addition of hydrogen peroxide (5 equivalents of a 10 M solution) to MMBI (0.1 M) in methanol. The products, MeBI and the ester, were obtained following preparative TLC on silica (Uniplate, Analtech Co., Newark, DL) using 5% methanol/chloroform as eluant.
The following experiment was performed to determine the effect of DMMBI oxidation on LPX activity. LPX (0.1 μM, final concentration) was incubated with hydrogen peroxide (100 μM), iodide ion (5 mM) and DMMBI (100 μM), as indicated in Table 2. After a 100 second incubation at 25° C., an aliquot was diluted 200-fold and the iodide ion oxidation activity determined. Values shown in Table 2, are averages +/- standard deviations (n=4) of the percentage relative to untreated LPX.

LPX and TPX = assay: suicide inhibition of peroxidases (summary statements); assay type: biochemical
peroxidase = assay: peroxidase/H2O2/I- triiodide formation with DMIT; assay type: biochemical; conditions: H2O2 and I-, varying quantities of DMIT
Protocol: DMIT was synthesized according to the published method by Maier, Helv. Chim. Acta, Vol. 53, p. 1417 (1970). Varying quantities of DMIT were incubated with peroxidase, H2 O2 and I^-. Triiodide formation was observed spectrophotometrically as a function of time. […] An initial lag phase was dependent on the amount of thione used, followed by a rate increase to approximately the control rate.

LPX [2] = biological target: T1, LPX; assay: LPX-catalyzed iodide ion oxidation (triiodide formation); assay type: biochemical, bovine; conditions: LPX, H2O2, iodide ion
Text: as §1, with “The products, MeBI and the ester, were obtained following preparative TLC on silica (Uniplate, Analtech Co., Newark, DL) using 5% methanol/chloroform as eluant.” left out
Inhibition of LPX activity by thiones was determined from the kinetics of iodide ion, guaiacol or ABTS oxidation assays conducted at 25° C. Kinetic parameters of suicide inactivation were determined as previously described. […]

SMILES: CN1CCN(C)C1=S [DMIT, 1,3-dimethylimidazolidine-2-thione]
- loss of enzymatic activity (LPX [1]): did not cause any loss of enzymatic activity
- selectivity for iodide ion oxidation (LPX and TPX; alternate substrate mechanism): block only reactions involving iodide ion oxidation
- suicide inhibition (LPX and TPX; summary of own examples): not suicide inhibitors
- effect on triiodide formation (peroxidase): substantially the same as reported for DMMBI in Example 1 and Ac2 MBI in Example 2
- inhibition of iodide ion oxidation (triiodide formation) (LPX [2]): Identical results
